For test [1], the target named is Serine/threonine-protein kinase Nek7 (Homo sapiens) (UniProt Q8TDX7). Description: Inhibition of NEK7 (unknown origin) at 10 uM after 120 mins P33 radiolabeled kinase activity assay.
The target of test [2] is Serine/threonine-protein kinase PAK 1 (Homo sapiens) (UniProt Q13153). In words: Inhibition of PAK1 (unknown origin) at 10 uM after 120 mins P33 radiolabeled kinase activity assay.
Test [3] deals with T1, Protein kinase C zeta type (Homo sapiens) (UniProt Q05513).
T1 sequence (whole entry): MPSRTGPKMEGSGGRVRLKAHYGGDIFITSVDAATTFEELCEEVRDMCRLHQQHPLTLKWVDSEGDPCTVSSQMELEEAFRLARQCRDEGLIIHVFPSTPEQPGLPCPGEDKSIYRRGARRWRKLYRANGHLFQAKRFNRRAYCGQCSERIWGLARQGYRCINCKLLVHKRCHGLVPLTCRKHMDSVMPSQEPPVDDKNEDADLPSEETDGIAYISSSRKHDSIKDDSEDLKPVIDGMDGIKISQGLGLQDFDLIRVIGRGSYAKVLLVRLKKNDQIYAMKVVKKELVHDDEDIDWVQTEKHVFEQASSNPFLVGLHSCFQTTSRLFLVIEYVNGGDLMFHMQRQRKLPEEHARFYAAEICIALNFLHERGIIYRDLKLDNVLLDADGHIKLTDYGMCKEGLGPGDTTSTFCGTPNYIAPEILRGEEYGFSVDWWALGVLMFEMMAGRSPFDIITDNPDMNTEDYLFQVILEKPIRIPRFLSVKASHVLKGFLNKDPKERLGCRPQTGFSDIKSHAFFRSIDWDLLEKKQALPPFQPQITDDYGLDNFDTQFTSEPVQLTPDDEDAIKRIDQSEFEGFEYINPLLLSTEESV
Description: Inhibition of PKCzeta (unknown origin) at 10 uM after 120 mins P33 radiolabeled kinase activity assay.

For a further test, the species on record is Homo sapiens. In words: Inhibition of PKG2 (unknown origin) at 10 uM after 120 mins P33 radiolabeled kinase activity assay.
Test [4] deals with Tyrosine-protein kinase JAK3 (Homo sapiens) (UniProt P52333). In words: Inhibition of JAK3 (unknown origin) at 10 uM after 120 mins P33 radiolabeled kinase activity assay.
Test [5] addresses Dual specificity mitogen-activated protein kinase kinase 1 (Homo sapiens) (UniProt Q02750). Description: Inhibition of MEK1 (unknown origin) at 10 uM after 120 mins P33 radiolabeled kinase activity assay.
In test [6] the target is Rho-associated protein kinase 1 (Homo sapiens) (UniProt Q13464). In words: Inhibition of ROCK1 (unknown origin) at 10 uM after 120 mins P33 radiolabeled kinase activity assay.
Test [7] concerns the target SRSF protein kinase 3 (Homo sapiens) (UniProt Q9UPE1). In words: Inhibition of MSSK1 (unknown origin) at 10 uM after 120 mins P33 radiolabeled kinase activity assay.
The target in test [8] is T2, Muscle, skeletal receptor tyrosine-protein kinase (Homo sapiens) (UniProt O15146).
T2 sequence (whole entry): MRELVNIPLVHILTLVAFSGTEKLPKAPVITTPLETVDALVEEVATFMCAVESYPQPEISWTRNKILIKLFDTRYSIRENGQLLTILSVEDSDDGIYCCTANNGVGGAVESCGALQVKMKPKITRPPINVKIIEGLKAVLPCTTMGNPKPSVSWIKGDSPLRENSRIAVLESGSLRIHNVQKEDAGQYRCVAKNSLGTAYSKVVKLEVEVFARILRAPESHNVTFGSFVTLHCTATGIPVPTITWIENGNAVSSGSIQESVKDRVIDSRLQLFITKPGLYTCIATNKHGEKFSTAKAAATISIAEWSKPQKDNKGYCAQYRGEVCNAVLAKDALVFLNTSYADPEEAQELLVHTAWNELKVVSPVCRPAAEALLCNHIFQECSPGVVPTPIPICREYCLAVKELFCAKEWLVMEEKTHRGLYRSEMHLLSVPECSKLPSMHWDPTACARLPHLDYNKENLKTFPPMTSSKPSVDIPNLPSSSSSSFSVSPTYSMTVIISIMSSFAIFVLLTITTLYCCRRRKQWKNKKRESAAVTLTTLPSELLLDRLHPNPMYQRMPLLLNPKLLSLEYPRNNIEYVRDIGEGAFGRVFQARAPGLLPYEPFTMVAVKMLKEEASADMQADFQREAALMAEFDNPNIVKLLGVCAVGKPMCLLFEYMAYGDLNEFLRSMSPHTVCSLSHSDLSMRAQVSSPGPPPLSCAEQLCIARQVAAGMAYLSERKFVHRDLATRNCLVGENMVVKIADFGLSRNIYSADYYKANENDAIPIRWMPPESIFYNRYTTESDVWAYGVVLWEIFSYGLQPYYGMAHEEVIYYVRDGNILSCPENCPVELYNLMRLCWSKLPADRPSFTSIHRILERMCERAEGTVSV
Description: Inhibition of MUSK (unknown origin) at 10 uM after 120 mins P33 radiolabeled kinase activity assay.

The target in test [9] is Serine/threonine-protein kinase tousled-like 1 (Homo sapiens) (UniProt Q9UKI8). Description: Inhibition of TLK1 (unknown origin) at 10 uM after 120 mins P33 radiolabeled kinase activity assay.
Test [10] concerns the target Calcium/calmodulin-dependent protein kinase kinase 2 (Homo sapiens) (UniProt Q96RR4). In words: Inhibition of CAMKK2 (unknown origin) at 10 uM after 120 mins P33 radiolabeled kinase activity assay.
For test [11], the target named is CDK4/Cyclin D3 (Homo sapiens) (UniProt P11802+P30281). Description: Inhibition of CDK4/cyclin D3 (unknown origin) at 10 uM after 120 mins P33 radiolabeled kinase activity assay. In kind it is protein-complex assay.
For test [12], the target named is Casein kinase II subunit alpha' (Homo sapiens) (UniProt P19784). In words: Inhibition of CK2alpha2 (unknown origin) at 10 uM after 120 mins P33 radiolabeled kinase activity assay.
For test [13], the target named is Lymphokine-activated killer T-cell-originated protein kinase (Homo sapiens) (UniProt Q96KB5). In words: Inhibition of PBK (unknown origin) at 10 uM after 120 mins P33 radiolabeled kinase activity assay.
Test [14] concerns the target Interleukin-1 receptor-associated kinase 4 (Homo sapiens) (UniProt Q9NWZ3). In words: Inhibition of IRAK4 (unknown origin) at 10 uM after 120 mins P33 radiolabeled kinase activity assay.
The target in test [15] is Serine/threonine-protein kinase 3 (Homo sapiens) (UniProt Q13188). In words: Inhibition of MST2 (unknown origin) at 10 uM after 120 mins P33 radiolabeled kinase activity assay.
The target of test [16] is Testis-specific serine/threonine-protein kinase 6 (Homo sapiens) (UniProt Q9BXA6). Description: Inhibition of SSTK (unknown origin) at 10 uM after 120 mins P33 radiolabeled kinase activity assay.
Test [17] deals with Tau-tubulin kinase 1 (Homo sapiens) (UniProt Q5TCY1). Description: Inhibition of TTBK1 (unknown origin) at 10 uM after 120 mins P33 radiolabeled kinase activity assay.
In test [18] the target is Serine/threonine-protein kinase VRK2 (Homo sapiens) (UniProt Q86Y07). In words: Inhibition of VRK2 (unknown origin) at 10 uM after 120 mins P33 radiolabeled kinase activity assay.
For test [19], the target named is Calcium/calmodulin-dependent protein kinase kinase 1 (Homo sapiens) (UniProt Q8N5S9). In words: Inhibition of CAMKK1 (unknown origin) at 10 uM after 120 mins P33 radiolabeled kinase activity assay.

Structures are written as SMILES.

Sequence of Serine/threonine-protein kinase PAK 1 (Homo sapiens) (Q13153 whole entry): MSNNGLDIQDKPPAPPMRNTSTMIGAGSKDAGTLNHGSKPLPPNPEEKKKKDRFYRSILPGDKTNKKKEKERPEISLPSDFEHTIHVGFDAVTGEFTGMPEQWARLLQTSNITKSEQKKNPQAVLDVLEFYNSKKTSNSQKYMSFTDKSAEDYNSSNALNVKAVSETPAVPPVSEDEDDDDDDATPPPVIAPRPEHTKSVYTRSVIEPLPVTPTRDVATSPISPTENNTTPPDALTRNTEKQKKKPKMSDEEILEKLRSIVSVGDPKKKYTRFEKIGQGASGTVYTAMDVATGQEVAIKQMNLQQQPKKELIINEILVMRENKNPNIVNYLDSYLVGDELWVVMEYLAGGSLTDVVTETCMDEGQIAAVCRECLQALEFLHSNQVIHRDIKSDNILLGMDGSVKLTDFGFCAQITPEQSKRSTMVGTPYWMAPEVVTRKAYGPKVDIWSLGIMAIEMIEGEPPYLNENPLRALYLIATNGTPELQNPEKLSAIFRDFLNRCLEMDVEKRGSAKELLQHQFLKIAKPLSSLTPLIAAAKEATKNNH
Sequence of Rho-associated protein kinase 1 (Homo sapiens) (Q13464 2-1354 limits assumed): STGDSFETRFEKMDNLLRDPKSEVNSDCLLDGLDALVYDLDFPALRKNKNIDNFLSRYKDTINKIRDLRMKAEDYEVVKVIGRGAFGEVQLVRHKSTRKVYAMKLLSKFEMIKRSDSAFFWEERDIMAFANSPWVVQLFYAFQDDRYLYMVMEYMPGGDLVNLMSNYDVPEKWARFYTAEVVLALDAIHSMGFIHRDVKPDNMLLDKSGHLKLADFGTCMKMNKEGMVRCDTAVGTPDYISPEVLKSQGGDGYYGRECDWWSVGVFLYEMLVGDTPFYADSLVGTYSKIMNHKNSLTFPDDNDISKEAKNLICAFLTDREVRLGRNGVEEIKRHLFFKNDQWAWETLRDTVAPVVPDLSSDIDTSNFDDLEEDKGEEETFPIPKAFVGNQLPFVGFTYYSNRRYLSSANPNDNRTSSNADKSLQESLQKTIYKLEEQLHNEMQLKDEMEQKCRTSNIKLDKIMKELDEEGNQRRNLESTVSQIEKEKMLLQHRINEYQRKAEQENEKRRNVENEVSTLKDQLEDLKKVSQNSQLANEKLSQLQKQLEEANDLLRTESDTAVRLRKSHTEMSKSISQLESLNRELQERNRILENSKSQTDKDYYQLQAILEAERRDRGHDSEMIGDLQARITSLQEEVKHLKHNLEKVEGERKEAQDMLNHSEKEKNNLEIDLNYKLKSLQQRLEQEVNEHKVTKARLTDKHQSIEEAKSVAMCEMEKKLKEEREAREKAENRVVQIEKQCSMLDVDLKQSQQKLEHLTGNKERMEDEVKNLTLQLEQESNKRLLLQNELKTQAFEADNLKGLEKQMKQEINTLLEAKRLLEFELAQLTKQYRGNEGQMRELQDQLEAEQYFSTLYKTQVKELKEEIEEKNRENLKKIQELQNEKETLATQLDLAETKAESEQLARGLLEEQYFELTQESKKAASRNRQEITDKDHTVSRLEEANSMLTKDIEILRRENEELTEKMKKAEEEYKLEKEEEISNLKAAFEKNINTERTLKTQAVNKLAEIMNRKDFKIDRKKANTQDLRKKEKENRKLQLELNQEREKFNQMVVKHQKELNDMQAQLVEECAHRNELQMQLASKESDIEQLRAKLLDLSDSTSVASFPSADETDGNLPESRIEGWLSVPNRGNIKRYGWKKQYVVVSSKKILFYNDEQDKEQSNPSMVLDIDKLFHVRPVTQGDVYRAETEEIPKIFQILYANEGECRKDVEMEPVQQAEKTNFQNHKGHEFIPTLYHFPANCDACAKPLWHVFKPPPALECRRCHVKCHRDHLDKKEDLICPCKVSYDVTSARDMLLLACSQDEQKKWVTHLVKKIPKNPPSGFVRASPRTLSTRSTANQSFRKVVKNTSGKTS
Sequence of Calcium/calmodulin-dependent protein kinase kinase 1 (Homo sapiens) (Q8N5S9 whole entry, looked up): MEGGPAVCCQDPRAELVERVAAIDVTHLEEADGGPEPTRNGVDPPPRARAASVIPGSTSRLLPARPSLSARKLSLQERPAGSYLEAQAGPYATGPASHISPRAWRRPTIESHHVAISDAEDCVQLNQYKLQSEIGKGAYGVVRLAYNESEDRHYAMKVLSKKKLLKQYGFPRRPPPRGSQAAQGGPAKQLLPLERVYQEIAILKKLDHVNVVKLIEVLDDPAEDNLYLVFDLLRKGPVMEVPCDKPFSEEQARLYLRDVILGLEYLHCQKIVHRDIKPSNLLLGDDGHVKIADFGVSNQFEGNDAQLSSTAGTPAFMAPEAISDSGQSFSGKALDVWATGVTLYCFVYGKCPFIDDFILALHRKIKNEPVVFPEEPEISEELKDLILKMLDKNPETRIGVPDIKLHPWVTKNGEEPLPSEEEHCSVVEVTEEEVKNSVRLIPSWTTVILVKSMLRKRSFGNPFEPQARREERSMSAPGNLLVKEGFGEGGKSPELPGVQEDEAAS
Sequence of Testis-specific serine/threonine-protein kinase 6 (Homo sapiens) (Q9BXA6 whole entry): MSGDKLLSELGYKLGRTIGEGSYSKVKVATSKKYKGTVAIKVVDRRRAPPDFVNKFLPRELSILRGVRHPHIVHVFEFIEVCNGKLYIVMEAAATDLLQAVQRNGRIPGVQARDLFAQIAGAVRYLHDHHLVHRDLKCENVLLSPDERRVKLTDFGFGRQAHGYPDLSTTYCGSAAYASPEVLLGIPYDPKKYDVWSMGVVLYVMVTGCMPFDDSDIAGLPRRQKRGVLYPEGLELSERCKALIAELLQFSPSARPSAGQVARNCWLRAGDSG
Sequence of Casein kinase II subunit alpha' (Homo sapiens) (P19784 whole entry, looked up): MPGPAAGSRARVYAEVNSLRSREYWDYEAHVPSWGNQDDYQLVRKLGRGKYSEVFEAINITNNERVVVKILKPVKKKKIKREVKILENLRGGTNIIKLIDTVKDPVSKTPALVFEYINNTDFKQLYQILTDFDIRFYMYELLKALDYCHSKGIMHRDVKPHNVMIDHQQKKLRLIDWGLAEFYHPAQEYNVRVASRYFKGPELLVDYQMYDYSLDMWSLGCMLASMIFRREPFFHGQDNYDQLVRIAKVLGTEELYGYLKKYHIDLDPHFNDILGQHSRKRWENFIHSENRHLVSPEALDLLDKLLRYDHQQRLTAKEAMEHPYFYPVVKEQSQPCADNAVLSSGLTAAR
Sequence of SRSF protein kinase 3 (Homo sapiens) (Q9UPE1 whole entry): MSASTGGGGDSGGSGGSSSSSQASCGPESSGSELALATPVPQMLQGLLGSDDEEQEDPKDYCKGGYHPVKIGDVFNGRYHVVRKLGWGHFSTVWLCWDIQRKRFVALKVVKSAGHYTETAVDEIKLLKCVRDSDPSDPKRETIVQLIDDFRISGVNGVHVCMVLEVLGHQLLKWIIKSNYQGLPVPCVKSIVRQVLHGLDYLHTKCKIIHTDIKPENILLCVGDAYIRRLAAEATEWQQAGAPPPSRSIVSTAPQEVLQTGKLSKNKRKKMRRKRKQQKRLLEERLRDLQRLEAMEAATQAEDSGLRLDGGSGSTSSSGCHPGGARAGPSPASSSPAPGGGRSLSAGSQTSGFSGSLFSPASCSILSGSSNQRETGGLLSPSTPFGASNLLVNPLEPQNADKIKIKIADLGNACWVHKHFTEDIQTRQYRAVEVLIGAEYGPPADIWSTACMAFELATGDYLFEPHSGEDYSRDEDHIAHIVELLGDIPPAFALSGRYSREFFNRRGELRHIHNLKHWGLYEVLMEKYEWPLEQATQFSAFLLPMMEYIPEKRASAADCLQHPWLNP
Sequence of Lymphokine-activated killer T-cell-originated protein kinase (Homo sapiens) (Q96KB5 whole entry): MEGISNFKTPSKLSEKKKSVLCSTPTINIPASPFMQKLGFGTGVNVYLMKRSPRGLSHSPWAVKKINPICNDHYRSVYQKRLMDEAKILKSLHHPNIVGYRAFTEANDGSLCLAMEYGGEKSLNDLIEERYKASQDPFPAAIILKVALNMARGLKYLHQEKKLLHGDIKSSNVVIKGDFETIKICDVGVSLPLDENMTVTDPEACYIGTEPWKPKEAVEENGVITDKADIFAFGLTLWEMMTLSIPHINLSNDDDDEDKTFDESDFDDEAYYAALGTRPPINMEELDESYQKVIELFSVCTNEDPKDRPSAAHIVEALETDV
Sequence of Serine/threonine-protein kinase tousled-like 1 (Homo sapiens) (Q9UKI8 whole entry): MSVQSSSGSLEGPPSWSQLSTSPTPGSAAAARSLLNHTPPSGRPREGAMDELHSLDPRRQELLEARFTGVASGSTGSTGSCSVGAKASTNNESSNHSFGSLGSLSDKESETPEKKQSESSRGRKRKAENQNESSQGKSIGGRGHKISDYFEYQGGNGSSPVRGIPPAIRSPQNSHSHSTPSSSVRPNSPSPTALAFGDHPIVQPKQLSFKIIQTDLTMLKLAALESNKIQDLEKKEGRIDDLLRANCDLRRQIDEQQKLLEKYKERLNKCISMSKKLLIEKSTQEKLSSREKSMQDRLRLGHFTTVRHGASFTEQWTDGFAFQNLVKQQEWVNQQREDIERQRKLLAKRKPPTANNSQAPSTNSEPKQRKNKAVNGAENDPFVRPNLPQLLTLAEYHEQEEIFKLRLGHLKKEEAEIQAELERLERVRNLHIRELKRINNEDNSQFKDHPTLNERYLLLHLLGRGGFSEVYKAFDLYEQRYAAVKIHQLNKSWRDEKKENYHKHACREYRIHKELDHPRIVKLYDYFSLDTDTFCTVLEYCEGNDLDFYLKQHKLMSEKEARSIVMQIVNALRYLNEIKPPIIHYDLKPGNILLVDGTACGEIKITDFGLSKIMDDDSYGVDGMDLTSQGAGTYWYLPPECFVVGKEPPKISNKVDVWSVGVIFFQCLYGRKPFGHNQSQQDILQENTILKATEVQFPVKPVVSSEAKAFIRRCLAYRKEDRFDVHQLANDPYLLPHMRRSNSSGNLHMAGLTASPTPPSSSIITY
Sequence of Serine/threonine-protein kinase Nek7 (Homo sapiens) (Q8TDX7 whole entry, looked up): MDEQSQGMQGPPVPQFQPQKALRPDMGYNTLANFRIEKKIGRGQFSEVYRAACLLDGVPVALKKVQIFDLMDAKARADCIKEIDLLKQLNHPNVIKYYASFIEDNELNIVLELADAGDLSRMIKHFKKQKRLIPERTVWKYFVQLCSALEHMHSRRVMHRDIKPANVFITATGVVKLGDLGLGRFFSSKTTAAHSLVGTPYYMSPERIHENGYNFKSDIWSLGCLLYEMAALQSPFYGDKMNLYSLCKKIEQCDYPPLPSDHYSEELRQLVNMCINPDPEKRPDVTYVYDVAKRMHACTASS

For the molecule `CS(=O)(=O)c1cccc(Nc2nccc(-c3sc(N4CCOCC4)nc3-c3cccc(NS(=O)(=O)c4c(F)cccc4F)c3)n2)c1`, the inhibition was 33.7% in test [1]; 56.5% in test [2]; 7.55% in test [3]; 8.73% in the test listed under Homo sapiens; 15.9% in test [4]; 72.5% in test [5]. Moreover, the inhibition in test [6] is -6.9%; in test [7], -1.37%; in test [8] it was 33.2%; in test [9] it was -4.48%; in test [10], -1.4%; in test [11], 26.6%. In test [12], the inhibition worked out at 39.8%.

As for `CC(C)(C)c1cc(NC(=O)Nc2ccc(Oc3ccncc3)cc2)no1`, the inhibition in test [13] is 12.2%; in [3] it was 5.44%; in the test filed under Homo sapiens, 6.69%; in test [14], 24.7%; in [5] it was 22%; in [6], 9.07%. In addition, the inhibition in test [7] is 85%; in test [15], -4.9%; in [8] it was 16.4%; in test [16], 7.1%; in test [17], 8.16%; in [18] it was -5.34%. Besides, the inhibition amounted to 60.5% in test [19], 54.2% in [10] and 92.5% in [11].

For `COCCNC(=O)c1ccc2c(c1)nc(-c1cnc(-c3ccc(Cl)cc3)[nH]1)n2CCOC`, the inhibition in test [1] was 6.02%; in [2] it was 5.25%; in test [13], 11.6%; in test [3] it was 3.68%; in the test listed under Homo sapiens it was -5.6%; in test [14], 13.9%. In addition, the inhibition is -7.14% in test [4]; -5.33% in test [15]; -5.11% in test [8]; -0.51% in test [16]; -7.05% in test [9]; 7.91% in [17]. Besides, the values for the inhibition in test [18], in test [19] and in [12] were -4.56%, -7.72% and -7.82%, respectively.

(Values after ChEMBL document CHEMBL3627608, “Crystal structures of human RIP2 kinase catalytic domain complexed with ATP-competitive inhibitors: Foundations for understanding inhibitor selectivity” (Bioorg Med Chem, 2015).)
